Data published in PubChem BioAssay (NCI).
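Method: 48-hour compound exposure of cells in 96-well plates, five concentrations, linear interpolation of endpoints. The concentration for full growth arrest is given as TGI.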

Key:
Test in all cases: growth of human tumour cells (NCI), 48 h
SK-MEL-28 melanoma = tested on: SK-MEL-28 melanoma
HOP-62 NSCLC = tested on: HOP-62 NSCLC
UACC-257 melanoma = tested on: UACC-257 melanoma
SNB-75 CNS = tested on: SNB-75 CNS
TK-10 renal = tested on: TK-10 renal
SF-539 CNS = tested on: SF-539 CNS
NCI/ADR-RES ovarian = tested on: NCI/ADR-RES ovarian
NCI-H460 lung = tested on: NCI-H460 lung
SNB-19 CNS = tested on: SNB-19 CNS
HCT-15 colon = tested on: HCT-15 colon
ACHN renal = tested on: ACHN renal
NCI-H522 lung = tested on: NCI-H522 lung
IGROV1 ovarian = tested on: IGROV1 ovarian
HCT-116 colon = tested on: HCT-116 colon
HCC-2998 colon = tested on: HCC-2998 colon
UO-31 renal = tested on: UO-31 renal
MCF7 breast = tested on: MCF7 breast
NCI-H23 lung = tested on: NCI-H23 lung
OVCAR-3 ovarian = tested on: OVCAR-3 ovarian
T-47D breast = tested on: T-47D breast
EKVX NSCLC = tested on: EKVX NSCLC
PC-3 prostate = tested on: PC-3 prostate
LOX IMVI melanoma = tested on: LOX IMVI melanoma
HOP-92 NSCLC = tested on: HOP-92 NSCLC
MALME-3M melanoma = tested on: MALME-3M melanoma
MOLT-4 leukemia = tested on: MOLT-4 leukemia
CAKI-1 renal = tested on: CAKI-1 renal
MDA-MB-435 = tested on: MDA-MB-435
RXF 393 renal = tested on: RXF 393 renal
NCI-H226 lung = tested on: NCI-H226 lung
OVCAR-5 ovarian = tested on: OVCAR-5 ovarian
HT29 colon = tested on: HT29 colon
COLO 205 colon = tested on: COLO 205 colon
MDA-N = tested on: MDA-N
U251 CNS = tested on: U251 CNS
DU-145 prostate = tested on: DU-145 prostate
BT-549 breast = tested on: BT-549 breast
MDA-MB-231 breast = tested on: MDA-MB-231 breast
SF-268 CNS = tested on: SF-268 CNS
KM12 colon = tested on: KM12 colon
OVCAR-4 ovarian = tested on: OVCAR-4 ovarian
HL-60(TB) leukemia = tested on: HL-60(TB) leukemia
SK-OV-3 ovarian = tested on: SK-OV-3 ovarian
SN12C renal = tested on: SN12C renal
UACC-62 melanoma = tested on: UACC-62 melanoma
A498 renal = tested on: A498 renal
M14 melanoma = tested on: M14 melanoma
K-562 leukemia = tested on: K-562 leukemia
SF-295 CNS = tested on: SF-295 CNS
SW-620 colon = tested on: SW-620 colon
OVCAR-8 ovarian = tested on: OVCAR-8 ovarian
CCRF-CEM leukemia = tested on: CCRF-CEM leukemia
A549 NSCLC = tested on: A549 NSCLC
786-0 renal = tested on: 786-0 renal
SR leukemia = tested on: SR leukemia
HS 578T breast = tested on: HS 578T breast
SK-MEL-2 melanoma = tested on: SK-MEL-2 melanoma
SK-MEL-5 melanoma = tested on: SK-MEL-5 melanoma

Measured: TGI

CCOC(=N)n1c(=O)n(C2=NCCN2)c2ccccc21
> 100 µM: SK-MEL-28 melanoma | HOP-62 NSCLC | UACC-257 melanoma | SNB-75 CNS | TK-10 renal | SF-539 CNS | NCI/ADR-RES ovarian | NCI-H460 lung | SNB-19 CNS | HCT-15 colon | ACHN renal | NCI-H522 lung | IGROV1 ovarian | HCT-116 colon | HCC-2998 colon | UO-31 renal | MCF7 breast | NCI-H23 lung | OVCAR-3 ovarian | T-47D breast | EKVX NSCLC | PC-3 prostate | LOX IMVI melanoma | HOP-92 NSCLC | MALME-3M melanoma | MOLT-4 leukemia | CAKI-1 renal | MDA-MB-435 | RXF 393 renal | NCI-H226 lung | OVCAR-5 ovarian | HT29 colon | COLO 205 colon | MDA-N | U251 CNS | DU-145 prostate | BT-549 breast | MDA-MB-231 breast | SF-268 CNS | KM12 colon | OVCAR-4 ovarian | HL-60(TB) leukemia | SK-OV-3 ovarian | SN12C renal | UACC-62 melanoma | A498 renal | M14 melanoma | K-562 leukemia | SF-295 CNS | SW-620 colon | OVCAR-8 ovarian | CCRF-CEM leukemia | A549 NSCLC | 786-0 renal | SR leukemia

CSc1cc(Cl)c(C)cc1S(=O)(=O)NC(=O)NNc1ccc(Cl)cc1
> 100 µM: SK-MEL-28 melanoma | HOP-62 NSCLC | SNB-75 CNS | SF-539 CNS | NCI/ADR-RES ovarian | NCI-H460 lung | SNB-19 CNS | HCT-15 colon | ACHN renal | NCI-H522 lung | IGROV1 ovarian | HCT-116 colon | HCC-2998 colon | HS 578T breast | MCF7 breast | OVCAR-3 ovarian | T-47D breast | EKVX NSCLC | PC-3 prostate | LOX IMVI melanoma | SK-MEL-2 melanoma | MALME-3M melanoma | MOLT-4 leukemia | CAKI-1 renal | MDA-MB-435 | RXF 393 renal | NCI-H226 lung | OVCAR-5 ovarian | HT29 colon | SK-MEL-5 melanoma | COLO 205 colon | MDA-N | U251 CNS | DU-145 prostate | MDA-MB-231 breast | SF-268 CNS | KM12 colon | OVCAR-4 ovarian | SK-OV-3 ovarian | SN12C renal | A498 renal | M14 melanoma | K-562 leukemia | SF-295 CNS | SW-620 colon | OVCAR-8 ovarian | A549 NSCLC | 786-0 renal | SR leukemia
